# Reference: US20260174878A1, “IRAK4 DEGRADATION AGENT AND USE THEREOF” (LEADINGTAC PHARMACEUTICAL (SHAOXING) CO., LTD., priority 2022, published 2026)
# Columns and labels:
# [1] = molecular target: T1, IRAK4 kinase (Homo sapiens, UniProt Q9NWZ3); test: IRAK4 kinase activity test (KinEASE-STK S1 HTRF kit); assay type: biochemical; conditions: IRAK4 kinase 2.5 nM, 7 μM adenosine triphosphate, 37° C. 120 min
# T1 construct: purchased Carna
# T1 sequence (Q9NWZ3 1-460): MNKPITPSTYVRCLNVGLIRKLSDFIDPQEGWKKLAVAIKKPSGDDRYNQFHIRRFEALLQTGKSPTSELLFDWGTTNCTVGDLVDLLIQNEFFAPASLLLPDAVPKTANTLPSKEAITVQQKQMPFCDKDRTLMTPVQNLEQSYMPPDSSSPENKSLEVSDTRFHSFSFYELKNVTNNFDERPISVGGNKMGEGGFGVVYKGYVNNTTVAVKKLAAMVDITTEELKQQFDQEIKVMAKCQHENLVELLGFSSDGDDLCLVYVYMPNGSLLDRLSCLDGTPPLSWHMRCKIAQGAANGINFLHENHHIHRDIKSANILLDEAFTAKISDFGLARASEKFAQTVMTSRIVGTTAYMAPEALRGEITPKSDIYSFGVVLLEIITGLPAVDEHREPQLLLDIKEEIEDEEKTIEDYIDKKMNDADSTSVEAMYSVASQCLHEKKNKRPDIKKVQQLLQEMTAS
# Experimental: Then 2.5 nM IRAK4 kinase (Carna), 1 μM biotinylated polypeptide substrate (Cisbio), and 7 μM adenosine triphosphate (Sigma-Aldrich) were sequentially added, and the mixtures were incubated at 37° C. for 120 min. Subsequently, an anti-phosphoserine/threonine antibody (Cisbio) conjugated with a europium element compound and streptavidin conjugated with a modified XL665 (Cisbio) were added to the reaction system to stop the reaction. After 1 h of incubation at room temperature, the fluorescence intensity of each well was measured at the excitation wavelength of 337 nm and the emission wavelengths of 620 nm and 665 nm with a microplate reader EnVision (PerkinElmer) in the HTRF mode, and Ratio values were calculated using the formula: Ratio=(665 nm/620 nm)×10^4. The inhibition rates of the compounds at each concentration were calculated by comparison with the fluorescence intensity ratio of the control group. Then non-linear curve fittings for logarithmic concentration-inhibition rate were performed using GraphPad Prism 7, and the IC50 values of the compounds were obtained.
# [2] = molecular target: T2, IRAK4 protein in normal human PBMCs (Homo sapiens, UniProt Q9NWZ3); test: Degradation of IRAK4 protein in normal human PBMCs (AlphaLISA); assay type: cell-based; conditions: 24 h incubation
# T2 construct: host or cells: normal human PBMCs
# T2 sequence (Q9NWZ3 1-460): T1 sequence (Q9NWZ3 1-460)
# Experimental: The cryopreserved normal human PBMCs (Milestone, PB010C) were thawed and resuspended in RPMI 1640 medium (Gibco, A1049101) supplemented with 10% fetal bovine serum (Gibco, 10099141), 100 U/mL penicillin, and 100 µg/mL streptomycin (Gibco, 15140122). After 0.95 mL of cells were plated in each well of a 24-well cell culture plate, 50 µL of diluted compound solution was added to corresponding wells with cells, such that the final concentration of the compound fell within the range of 0.01-3000 nM. The final concentration of DMSO was 0.25%. After the compound-treated cell plate was incubated in an incubator at 37° C. with 5% CO2 for 24 h, the cells were collected into 1.5 mL centrifuge tubes and centrifuged at 1000 rpm at 4° C. for 5 min. The cell pellets were washed twice with 1×DPBS. The resuspended cells were lysed with 100 μL of lysis buffer, left to stand on ice for 30 min, and then centrifuged at 14000 g at 4° C. for 10 min. The samples of the cell lysate supernatant after centrifugation were cryopreserved at −80° C. before testing. The cell lysis buffer was a Western and IP cell lysis buffer (Beyotime, P0013) supplemented with 1 mM phenylmethylsulfonyl fluoride and a protease inhibitor cocktail (Beyotime, P1008).
# The total protein concentrations of the cell lysate samples were determined using a BCA protein quantification kit (Tiangen, PA115-02).
# The prepared PBMC lysate samples were assayed for IRAK4 concentrations using a human IRAK4 AlphaLISA assay kit (PerkinElmer, AL3117C) to determine the degradation effects of the compounds on IRAK4. The method is as follows:
# 5 μL of each of IRAK4 standard solutions with different concentrations and test samples of cell lysate supernatant were added to a white 384-well plate (PerkinElmer, 6007299), and then 10 μL of 5× anti-IRAK4 […] beads was added to each well (final concentration of 10 μg/mL). The plate was incubated at room temperature for 30 min. Then 10 μL of 5× biotin-labeled anti-IRAK4 antibody was added to each well (final concentration of 1 nM), and the plate was incubated at room temperature for another 60 min. Finally, 25 μL of 2× streptavidin-labeled donor beads was added to each well (final concentration of 40 μg/mL), and the plate was incubated at room temperature for another 30 min. After the incubation was completed, AlphaLISA signal values were measured on a microplate reader EnVision (PerkinElmer, 2105) in the AlphaScreen standard mode. A standard curve was plotted from the AlphaLISA signal values of the IRAK4 standard solutions with different concentrations, and the IRAK4 concentration of each cell lysate supernatant was determined according to the corresponding concentrations on the standard curve for the AlphaLISA signal values of the test samples and by performing corresponding correction on the total protein concentration of each sample obtained by BCA quantification. The degradation rates for the compounds at each concentration were calculated by comparing the IRAK4 concentration with that of the control group. Then non-linear curve fittings for logarithmic concentration-inhibition rate were performed using GraphPad Prism 8, and the DC50 and Dmax values of the compound were obtained.
SMILES,IC50 [1] [nM],DC50 [2] [nM],Dmax [2] [%]
"CN(CCC1CCN(C(=O)c2ccc(Cl)c(N3CCC(=O)NC3=O)c2)CC1)C[C@H]1CC[C@H](n2cc(NC(=O)c3cnn4ccc(N5CC6CCC(C5)O6)nc34)c(C(F)F)n2)CC1 [Example 10, 5-(8-oxa-3-azabicyclo[3.2.1]octan-3-yl)-N-(1-((1R,4R)-4-(((2-(1-(4-chloro-3-(2,4-dioxotetrahydropyrimidin-1(2H)-yl)benzoyl)piperidin-4-yl)ethyl)(methyl)amino)methyl)cyclohexyl)-3-(difluoromethyl)-1H-pyrazol-4-yl)pyrazolo[1,5-a]pyrimidine-3-carboxamide]",8.05,0.67,97.6
"O=C1CCN(c2cc(C(=O)N3CCC4(CCN(C[C@H]5CC[C@H](n6cc(NC(=O)c7cnn8ccc(N9CC%10CCC(C9)O%10)nc78)c(C(F)F)n6)CC5)CC4)CC3)ccc2Cl)C(=O)N1 [Example 11, 5-(8-oxa-3-azabicyclo[3.2.1]octan-3-yl)-N-(1-((1R,4R)-4-((9-(4-chloro-3-(2,4-dioxotetrahydropyrimidin-1(2H)-yl)benzoyl)-3,9-diazaspiro[5.5]undecan-3-yl)methyl)cyclohexyl)-3-(difluoromethyl)-1H-pyrazol-4-yl)pyrazolo[1,5-a]pyrimidine-3-carboxamide]",7.74,0.88,97.4
"COc1ccc(C(=O)N2CCC(CCN(C)C[C@H]3CC[C@H](n4cc(NC(=O)c5cnn6ccc(N7CCC[C@H](O)C7)nc56)c(C(F)F)n4)CC3)CC2)cc1N1CCC(=O)NC1=O [Example 14, N-(3-(difluoromethyl)-1-((1R,4S)-4-(((2-(1-(3-(2,4-dioxotetrahydropyrimidin-1(2H)-yl)-4-methoxybenzoyl)piperidin-4-yl)ethyl)(methyl)amino)methyl)cyclohexyl)-1H-pyrazol-4-yl)-5-((S)-3-hydroxypiperidin-1-yl)pyrazolo[1,5-a]pyrimidine-3-carboxamide]",3.36,0.27,98.2
"COc1ccc(C(=O)N2CCC(CCN(C)C[C@H]3CC[C@H](n4cc(NC(=O)c5cnn6ccc(N7CCC[C@H](N)C7)nc56)c(C(F)F)n4)CC3)CC2)cc1N1CCC(=O)NC1=O [Example 15, 5-((S)-3-aminopiperidin-1-yl)-N-(3-(difluoromethyl)-1-((1R,4S)-4-(((2-(1-(3-(2,4-dioxotetrahydropyrimidin-1(2H)-yl)-4-methoxybenzoyl)piperidin-4-yl)ethyl)(methyl)amino)methyl)cyclohexyl)-1H-pyrazol-4-yl)pyrazolo[1,5-a]pyrimidine-3-carboxamide]",3.86,1.49,98.8
CN(CCC1CCN(C(=O)c2ccc(F)c(C3CCC(=O)NC3=O)c2)CC1)C(=O)[C@H]1CC[C@H](n2cc(NC(=O)c3cnn4ccc(N5CCOCC5)nc34)c(C(F)F)n2)CC1 (stereo partly drawn) [Example 17],9.82,0.92,98.9
"CN(CCC1CCN(C(=O)c2ccc(Cl)c(N3CCC(=O)NC3=O)c2)CC1)C[C@H]1CC[C@H](n2cc(NC(=O)c3cnn4ccc(N5CCC[C@H](N)C5)nc34)c(C(F)F)n2)CC1 [Example 18, 5-((S)-3-aminopiperidin-1-yl)-N-(1-((1R,4S)-4-(((2-(1-(4-chloro-3-(2,4-dioxotetrahydropyrimidin-1(2H)-yl)benzoyl)piperidin-4-yl)ethyl)(methyl)amino)methyl)cyclohexyl)-3-(difluoromethyl)-1H-pyrazol-4-yl)pyrazolo[1,5-a]pyrimidine-3-carboxamide]",7.86,0.77,99.5
"O=C1CCN(c2cc(C(=O)N3CCC4(CCN(C[C@H]5CC[C@H](n6cc(NC(=O)c7cnn8ccc(N9CC%10(COC%10)C9)nc78)c(C(F)F)n6)CC5)CC4)CC3)ccc2Cl)C(=O)N1 [Example 19, N-(1-((1R,4R)-4-((9-(4-chloro-3-(2,4-dioxotetrahydropyrimidin-1(2H)-yl)benzoyl)-3,9-diazaspiro[5.5]undecan-3-yl)methyl)cyclohexyl)-3-(difluoromethyl)-1H-pyrazol-4-yl)-5-(2-oxa-6-azaspiro[3.3]heptan-6-yl)pyrazolo[1,5-a]pyrimidine-3-carboxamide]",36.1,0.47,98
"Cc1ccc(C(=O)N2CCC3(CCN(C[C@H]4CC[C@H](n5cc(NC(=O)c6cnn7ccc(N8CCC[C@H](O)C8)nc67)c(C(F)F)n5)CC4)CC3)CC2)cc1N1CCC(=O)NC1=O [Example 27, N-(3-(difluoromethyl)-1-((1R,4S)-4-((9-(3-(2,4-dioxotetrahydropyrimidin-1(2H)-yl)-4-methylbenzoyl)-3,9-diazaspiro[5.5]undecan-3-yl)methyl)cyclohexyl)-1H-pyrazol-4-yl)-5-((S)-3-hydroxypiperidin-1-yl)pyrazolo[1,5-a]pyrimidine-3-carboxamide]",2.98,0.28,97.8
"COc1ccc(C(=O)N2CCC(CCN(C)C[C@H]3CC[C@H](n4cc(NC(=O)c5cnn6ccc(N7CC8(COC8)C7)nc56)c(C(F)F)n4)CC3)CC2)cc1N1CCC(=O)NC1=O [Example 32, N-(3-(difluoromethyl)-1-((1R,4R)-4-(((2-(1-(3-(2,4-dioxotetrahydropyrimidin-1(2H)-yl)-4-methoxybenzoyl)piperidin-4-yl)ethyl)(methyl)amino)methyl)cyclohexyl)-1H-pyrazol-4-yl)-5-(2-oxa-6-azaspiro[3.3]heptan-6-yl)pyrazolo[1,5-a]pyrimidine-3-carboxamide]",17,1.11,98.1
"COc1cc2nn([C@H]3CC[C@](O)(COCC4CCN(C(=O)c5ccc(Cl)c(N6CCC(=O)NC6=O)c5)CC4)CC3)cc2cc1NC(=O)c1cccc(C(F)(F)F)n1 [Example 33, N-(2-((1S,4S)-4-(((1-(4-chloro-3-(2,4-dioxotetrahydropyrimidin-1(2H)-yl)benzoyl)piperidin-4-yl)methoxy)methyl)-4-hydroxycyclohexyl)-6-methoxy-2H-indol-5-yl)-6-(trifluoromethyl)pyridinecarboxamide]",10.6,1.58,98.6
COc1cc2nn([C@H]3CC[C@](O)(COCCC4CCN(C(=O)c5ccc(Cl)c(N6CCC(=O)NC6=O)c5)CC4)CC3)cc2cc1NC(=O)c1cccc(C(F)(F)F)n1 [Example 34],12.9,1.32,99.1
COc1cc2nn([C@H]3CC[C@](O)(CN(C)CC4CCC5(CC4)CCN(C(=O)c4ccc(Cl)c(N6CCC(=O)NC6=O)c4)CC5)CC3)cc2cc1NC(=O)c1cccc(C(F)(F)F)n1 [Example 35],15.1,0.65,99.7
